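1) Cells in 96-well plates. 2) Compound, 48 h, 5 concentrations. 3) Linear interpolation between surrounding doses. 4) Unreached endpoint = highest concentration. GI50 is the concentration that inhibits growth by half. TGI: total growth inhibition.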
Experiments:
Test in all cases: NCI tumour cell line growth inhibition, 48 h
OVCAR-4 ovarian = test system: OVCAR-4 ovarian
LOX IMVI melanoma = test system: LOX IMVI melanoma
SF-295 CNS = test system: SF-295 CNS
NCI-H460 lung = test system: NCI-H460 lung
HOP-92 NSCLC = test system: HOP-92 NSCLC
SF-268 CNS = test system: SF-268 CNS
HOP-62 NSCLC = test system: HOP-62 NSCLC
SK-MEL-5 melanoma = test system: SK-MEL-5 melanoma
OVCAR-5 ovarian = test system: OVCAR-5 ovarian
SK-MEL-28 melanoma = test system: SK-MEL-28 melanoma

Row | SMILES | TGI (OVCAR-4 ovarian) [µM] | TGI (LOX IMVI melanoma) [µM] | TGI (SF-295 CNS) [µM] | TGI (NCI-H460 lung) [µM] | TGI (HOP-92 NSCLC) [µM] | TGI (SF-268 CNS) [µM] | TGI (HOP-62 NSCLC) [µM] | TGI (SK-MEL-5 melanoma) [µM] | TGI (OVCAR-5 ovarian) [µM] | TGI (SK-MEL-28 melanoma) [µM] | GI50 (OVCAR-4 ovarian) [µM] | GI50 (LOX IMVI melanoma) [µM] | GI50 (SF-295 CNS) [µM] | GI50 (NCI-H460 lung) [µM] | GI50 (HOP-92 NSCLC) [µM] | GI50 (SF-268 CNS) [µM] | GI50 (HOP-62 NSCLC) [µM] | GI50 (SK-MEL-5 melanoma) [µM] | GI50 (OVCAR-5 ovarian) [µM] | GI50 (SK-MEL-28 melanoma) [µM]
1 | C=C1OC2OC(C)C(NC(=O)OCC(Cl)(Cl)Cl)C(OC(C)=O)C2O1 (stereo not drawn) | > 100 | > 100 | > 100 | > 100 | > 100 | > 100 | > 100 | > 100 | > 100 | > 100 | – | – | – | – | – | – | – | – | – | –
2 | CN1C2C=CC(=O)C1C1C(=O)N(c3ccccc3)C(=O)C12 (stereo not drawn) | 38.7 | 13.3 | 36.7 | 28.9 | 0.701 | 17.3 | 28.6 | 24.3 | 21.6 | 16.7 | 11.7 | 3.74 | 3.06 | 12.7 | 0.085 | 3.99 | 12.4 | 11.8 | 5.95 | 3.62
3 | CC[C@H](C)[C@H](NC(=O)[C@H]1CCCCN1C)C(=O)N(C)[C@H](CCc1nc(C(=O)N[C@@H](Cc2ccccc2)C[C@H](C)C(=O)O)cs1)C(C)C | > 25 | > 25 | – | > 25 | > 25 | > 25 | > 25 | 3.24 | > 25 | > 25 | 1.94 | 0.123 | 0.143 | 0.164 | 0.643 | 0.184 | 0.208 | 0.0875 | 1.82 | > 25
4 | COc1ccc(-c2nsc3c2NC(=O)CC3c2ccsc2)cc1 (stereo not drawn) | > 100 | > 100 | > 51.5 | 9.49 | 81.5 | > 100 | > 100 | 2.76 | > 100 | > 100 | 3.47 | 0.422 | 0.211 | 0.228 | 0.334 | 1.34 | 0.371 | 0.0992 | 0.773 | 4.26
5 | CCCCCCCCCCCCCCCCCc1nc(Cl)nc(Cl)c1Cl | > 100 | > 100 | > 100 | > 100 | > 100 | > 100 | > 100 | 50.7 | > 100 | > 100 | – | – | – | – | – | – | – | – | – | –
6 | CCn1c(-c2nonc2N)nc2ccccc21 | > 25 | > 25 | > 25 | > 25 | > 25 | > 25 | > 25 | > 25 | > 25 | > 25 | > 25 | > 25 | > 25 | > 25 | 17 | > 25 | > 25 | > 25 | > 25 | > 25
7 | Nc1ccc(CC[C@H]2CCC/C=C/[C@@H]3C[C@H](O)C[C@H]3[C@H](O)/C=C/C(=O)O2)cc1 | 2.73 | 0.0567 | > 100 | > 100 | 0.53 | > 100 | – | 0.0236 | > 78.1 | 1.43 | 0.0339 | 0.0231 | 0.0476 | 0.043 | 0.0436 | 0.0351 | 0.0463 | < 0.013 | 0.0481 | 0.0244

Source: PubChem BioAssay (NCI)
